The source of these data is publication PMC6687188, “Novel lactate dehydrogenase inhibitors with in vivo efficacy against Cryptosporidium parvum” (PLoS Pathogens, 2019).

In this test the target is recombinant CpLDH protein (Cryptosporidium parvum, UniProt Q9GT92, F198L/K295E/R251K).
For the compound `O=C1C=C(NCCc2ccccc2)c2ccccc2C1=O` [NSC637731], the “MEAN CpLDH INHIBITION (%)” value was -17.56%. Then `CC(=O)SC(SC(C)=O)SC(C)=O` [NSC637833], with -64.71%; and `N#CCCN(c1ccc(C=O)cc1)S(=O)(=O)c1ccccc1` [NSC637914], with -47.07%.

As to `N#CCCN(CCC#N)c1ccc(/C=C2\N=C(c3cc([N+](=O)[O-])ccc3Cl)OC2=O)cc1` [NSC637916], the “MEAN CpLDH INHIBITION (%)” value is recorded as -14.05%.

`CCN(CC)CCNc1ccc2nc(C)n3c4ccc(OC)cc4c(=O)c1c23` [NSC637993]: the “MEAN CpLDH INHIBITION (%)” value is -46.33%. Consider `O=C1/C(=C\c2ccc(Cl)c(Cl)c2)CN(C(=O)CCN2CCOCC2)C/C1=C\c1ccc(Cl)c(Cl)c1` [NSC638646], for which the “MEAN CpLDH INHIBITION (%)” value was -17.60%.

Turning to `CCOC(=O)Nc1nc2ccc(Cn3cccc3)cc2[nH]1` [NSC639754], the “MEAN CpLDH INHIBITION (%)” value was -8.79%. For `Nc1ccccc1C(=O)NC(=O)Nc1ccc(Oc2ncc(Br)cn2)c(Cl)c1` [NSC639828] the value was -42.32%; for `Cc1nc(Nc2ccc(Cl)c(Cl)c2)sc1C(/C=C/c1ccc2c(c1)OCO2)=N/Nc1ccc([N+](=O)[O-])cc1[N+](=O)[O-]` [NSC640335], -79.51%.

Consider `Cc1ccc(Nc2nc(C)c(C(/C=C/c3ccc(/C=C/C(=N\NC(=O)C[n+]4ccccc4)c4sc(Nc5ccc(C)cc5[N+](=O)[O-])nc4C)cc3)=N/NC(=O)C[n+]3ccccc3)s2)c([N+](=O)[O-])c1.Cl` [NSC640342], for which the “MEAN CpLDH INHIBITION (%)” value is recorded as -89.53%. Then `CN(C)C[C@H]1CC[C@@H](CN(C)C)C1=O.Cl` [NSC640391], with -1.88%; and `Cc1nc(-c2cccnc2)sc1C(=O)/C=C/c1ccc(Cl)cc1Cl` [NSC640580], with -13.66%. Turning to `Cc1nc(-n2nc(-c3ccccc3)cc2-c2ccccc2)sc1C(=O)/C=C/c1ccc(Cl)c(Cl)c1` [NSC640584], the “MEAN CpLDH INHIBITION (%)” value is -6.68%. Then `CC1=CC(C)(C)N=C2SC(c3ccc(N)cc3)=NN12` [NSC640624], with -5.57%; and `S=C(Nc1ccccc1)N(/N=C/C=C/c1ccccc1)c1nnc(-c2ccccc2)c(-c2ccccc2)n1` [NSC640637], with -17.02%. As for `BrC(/C=N/Nc1nnc(-c2ccccc2)c(-c2ccccc2)n1)C(Br)c1ccccc1` (stereo not shown) [NSC640638], the “MEAN CpLDH INHIBITION (%)” value was -14.60%. Then `N#Cc1ccccc1NC(=O)C(=O)C(C(=O)c1ccccc1F)C1OC(=O)c2ccccc21` (stereo not shown) [NSC640974], with -7.97%; and `Cc1ccc(C)c(NC(=O)C(=O)C(C(=O)c2ccc3ccccc3c2)C2OC(=O)c3ccccc32)c1` (stereo not shown) [NSC640985], with -66.15%. Then `Cc1ccccc1NC(=O)C(=O)C(C(=O)c1ccccc1F)C1OC(=O)c2ccccc21` (stereo not shown) [NSC641228], with -51.30%; and `O=C(NC1=C(Cl)C(=O)c2ccccc2C1=O)C(=O)C(C(=O)c1ccc2ccccc2c1)C1OC(=O)c2ccccc21` (stereo not shown) [NSC641233], with -51.96%. For `COC(=O)c1ccccc1NC(=O)C(=O)CC(=O)c1ccccc1NC1=CC(=O)C(=O)c2ccccc21` [NSC641240] the value was -190.19%; for `O=C(CC(=O)c1ccccc1NC1=Cc2ccccc2C(=O)C1=O)C(=O)NC1=C(Cl)C(=O)c2ccccc2C1=O` [NSC641245], -19.61%; for `O=C1C=C(Nc2ccccc2C(=O)CC(=O)C(=O)Nc2ccc(Cl)c(Cl)c2)c2ccccc2C1=O` [NSC641250], -16.86%. For `O=C1C=C(Nc2ccccc2C(=O)CC(=O)C(=O)Nc2ccc(Cl)cc2)c2ccccc2C1=O` [NSC641253], the “MEAN CpLDH INHIBITION (%)” value was -12.80%. For `COc1ccc(/C(=N/O)C(c2ccc(OC)cc2)C2C(=O)Oc3ccccc32)cc1` (stereo not shown) [NSC641607] the value was -85.63%. Then `CCc1cccc(C(C)C)c1NC(=O)/C(=N\NC(N)=O)C(C(=O)OC)c1cnc2ccccc2n1` (stereo not shown) [NSC642033], with -12.26%; and `COC(=O)C(=O)C(C(=O)C(=O)Nc1cc(C)ccc1C)c1nc2ccc(C(=O)c3ccccc3)cc2[nH]c1=O` (stereo not shown) [NSC642040], with -9.38%.

`Cc1nc(C(N)=S)sc1C(=O)CC(=O)C(=O)Nc1c(C(C)C)cccc1C(C)C` [NSC642048]: the “MEAN CpLDH INHIBITION (%)” value is listed as -4.29%. Then `O=C(c1nc2ccc(Cl)cc2[nH]c1=O)C(O)c1ccc2c(c1)OCO2` (stereo not shown) [NSC642649], with -27.23%; and `N#CC(C#N)=Cc1ccc(Oc2ccccc2)cc1` [NSC643028], with -52.45%; and `N#CC(C#N)=Cc1cccc(Oc2ccccc2)c1` [NSC643031], with -51.68%. As to `O=C1c2ccccc2C(=O)C1C(c1ccc([N+](=O)[O-])cc1)C1C(=O)c2ccccc2C1=O` [NSC643148], the “MEAN CpLDH INHIBITION (%)” value was -12.75%. Then `CN(C)c1ccc(/C=C2\CCc3ccccc3C2=O)cc1Br` [NSC643162], with -31.17%. Then `CN(C)c1ccc(/C=C2\Cc3ccccc3C2=O)cc1Br` [NSC643163], with -30.02%; and `CN(C)c1ccc(/C=C/C(=O)c2ccccc2)cc1Br` [NSC643164], with -21.20%. With `COc1ccc(/C=C2\Cc3ccccc3C2=O)cc1OC` [NSC643174], the “MEAN CpLDH INHIBITION (%)” value is recorded as -15.39%.

As to `COc1ccc(/C=C2\CCc3ccccc3C2=O)cc1OC` [NSC643175], the “MEAN CpLDH INHIBITION (%)” value is given as -25.23%. Then `N#C/C(=C\c1ccc2ccccc2c1)C(=O)c1ccccc1` [NSC643186], with -12.83%; and `CN(C)c1ccc(/C=C/C(=O)[O-])cc1.CN(C)c1ccc(/C=C/C(=O)[O-])cc1.[Cu+2]` [NSC643351], with -4.10%. Regarding `COc1ccc(N=Cc2ccc(N(CCC#N)S(=O)(=O)c3ccccc3)cc2C)cc1` [NSC643599], the “MEAN CpLDH INHIBITION (%)” value is reported as -33.57%.

Turning to `CCOC(=O)/C(=C/c1ccc(N(C)C)cc1)N(CC)CC` [NSC643774], the “MEAN CpLDH INHIBITION (%)” value was -24.42%. Then `CCCC/C=C/C=C/C=C/CCCCCCCC(=O)OCC(COC(=O)CCCCCCC/C=C/C1C=CC(CCCC)C(C(=O)O)C1C(=O)O)OC(=O)CCCCCCC/C=C/C=C/C=C/CCCC.OCCNCO` (stereo not shown) [NSC643834], with -1.59%; and `CCOC(=O)C1=C(C)NC(=S)NC1c1ccccc1` (stereo not shown) [NSC643910], with -38.49%. For `Cc1ccccc1NC(=O)C(=O)C(c1cnc2ccc([N+](=O)[O-])cc2n1)[N+](=O)[O-]` (stereo not shown) [NSC644735] the value was -56.47%; for `O=C(Nc1cccc(C(F)(F)F)c1)C(=O)C(C(=O)c1ccc(Cl)c(Cl)c1)C1OC(=O)c2ccccc21` (stereo not shown) [NSC644794], -17.50%. For `Clc1ccc(-c2c(C3=NCCCN3)nnn2-c2ccc(Cl)cc2)cc1` [NSC645033] the value was -3.66%. For the compound `CC(C)OP(=O)(OC(C)C)C(N(C)C)P(=O)(OC(C)C)OC(C)C.[Cl][Sn]([Cl])([Cl])[c]1ccccc1` [NSC645567], the “MEAN CpLDH INHIBITION (%)” value is -28.84%. Then `CN(C)C(=S)/N=c1\ssc(=S)n1Cc1ccccn1` [NSC645617], with -28.16%; and `Oc1cc(-n2cccn2)c(O)cc1-n1cccn1` [NSC645987], with -40.48%.

As for `CCOC(OC1=C(C#N)CCC1)C(C)[Se]c1ccccc1` (stereo not shown) [NSC646189], the “MEAN CpLDH INHIBITION (%)” value is given as -21.95%. For `CCOC(OCC)C(CC)[Se]c1ccccc1[N+](=O)[O-]` (stereo not shown) [NSC646200], the “MEAN CpLDH INHIBITION (%)” value is listed as -24.52%. For `COc1cc(/C=C(\OC(C)=O)c2ccc3c(c2)OCO3)cc(OC)c1OC` [NSC647363] the value was -3.74%. For `CN/N=C(\C)C(CN1CCCCC1)C(C1=C(O)c2ccccc2OC1)c1ccccc1.Cl` (stereo not shown) [NSC647418] the value was -56.81%; for `O=C1Oc2ccccc2C1C/C(=N\Nc1ccccc1)c1ccccc1O` (stereo not shown) [NSC647613], -29.39%. On to `COc1cc(CC(=O)c2cc3c(cc2-c2ccccc2)OCO3)cc(OC)c1OC` [NSC648419], for which the “MEAN CpLDH INHIBITION (%)” value is listed as -12.60%. For `COc1cc(/C=C(\C)c2ccc3c(c2)OCO3)cc(OC)c1OC` [NSC648422] the value was -69.44%. Then `Cc1nc2c(o1)C(=O)c1ccccc1C2=Nc1ccccc1` [NSC650573], with -21.28%; and `Cc1ccc(S(=O)(=O)N2CCSCCSCCSCCSCC2)cc1` [NSC650792], with -46.61%. Then `CCC(=O)OC1CCn2c1nc1c2C(=O)C(C)=C(N2CC2)C1=O` (stereo not shown) [NSC651079], with -28.42%; and `CC1=C(N2CC2)C(=O)c2nc3n(c2C1=O)CCC3OC(=O)CCl` (stereo not shown) [NSC651080], with -28.90%. Consider `COCC(=O)OC1CCn2c1nc1c2C(=O)C(C)=C(NC(C)=O)C1=O` (stereo not shown) [NSC651084], for which the “MEAN CpLDH INHIBITION (%)” value is reported as -15.88%.

`OCc1ccc(-c2ccc(-c3ccc(CO)s3)o2)s1` [NSC652287]: the “MEAN CpLDH INHIBITION (%)” value was -15.92%. Then `OCCNCN(CNCCO)c1nc(N(CNCCO)CNCCO)nc(N(CNCCO)CNCCO)n1` [NSC653000], with -58.42%; and `C[CH2][Ge]([CH2]C)([CH2]C)[O]C(=O)CCC(=O)[O][Ge]([CH2]C)([CH2]C)[CH2]C` [NSC653558], with -17.98%.

Consider `Cc1cc(NC(=O)NC(=O)c2ccccc2NC(=O)CN)ccc1Oc1ncc(Br)cn1.Cl` [NSC654259], for which the “MEAN CpLDH INHIBITION (%)” value is reported as -46.44%. Then `COC(=O)c1ccc(NCc2cc(O)ccc2O)cc1` [NSC654705], with -2.14%; and `O=C(O)c1cc(CCc2cc(O)ccc2O)ccc1O` [NSC655255], with -35.82%. For `CCN1CCC(O)(/C=C/c2ccc(C)cc2)C(C(=O)/C=C/c2ccc(C)cc2)C1.Cl` (stereo not shown) [NSC657298] the value was -42.34%; for `COc1ccccc1/C=C1\Sc2scc(-c3cccc([N+](=O)[O-])c3)[n+]2C1=O.[Cl-]` [NSC657446], -8.01%. For `Cc1cc(O)c(/C=N/C(N)=S)c(=O)o1` [NSC657449] the value was -13.90%.
